Measurements as given in EP4691468A1, “PHARMACEUTICAL COMPOSITION FOR TREATING INFLAMMATORY BOWEL DISEASE” (EA Pharma Co., Ltd., priority 2023, dated 2024).
In brackets after ≈: the same amount, converted by molar mass. Several values for one entry are separate records, joined by “and”; a condition that tells them apart may be missing. Identical values can stand only once. Like-named read-outs stand apart in the source and are kept apart here.

What was measured:
[1] = system: MAdCAM-1; assay: Ex vivo MAdCAM-1 binding inhibition rate (PD) of lymphocytes in collected blood, flow cytometry; format: cell-based, human
Protocol: The MAdCAM-1 binding rate of lymphocytes in plasma was measured using a validated measurement method using the obtained blood samples, and the MAdCAM-1 binding inhibition rate of lymphocytes in plasma was calculated using Excel. Specifically, 5 µL of an 80 mM MnCl2 solution was added to 90 µL of heparinized blood and incubated at room temperature for 10 minutes. A volume of 5 µL of 200 µg/mL recombinant human MAdCAM-1/Fc (R&D Systems) was added to make a total volume of 100 µL, and the mixture was incubated at room temperature for 30 minutes. Subsequently, 1900 µL of BD Phosflow Lyse/Fix Buffer 5X (BD Biosciences) was added, and hemolysis and fixation were performed at 37°C for 10 minutes. After centrifugation for 5 minutes, the supernatant was removed, and 2000 µL of RPMI-1640 medium supplemented with 10% inactivated fetal bovine serum (hereinafter referred to as medium) was added. After centrifugation for 5 minutes, the supernatant was removed and washed. After washing again with the medium, 50 µL of Brilliant Stain Buffer (BD Biosciences), 1.25 µL of MAdCAM-1 FITC (Hycult Biotech), 5 µL of CD4 PE (BD Biosciences), 2.5 µL of CD45RO APC (UCHL1) (BioLegend), 5 µL of CD3 BV421 (SK7) (BioLegend), and 2.5 µL of CD45 BV510 (HI30) (BioLegend) were added, and the mixture was incubated for 30 minutes. After washing with Stain Buffer (BSA) (BD Biosciences), the percentage of MAdCAM-1-positive cells among CD3-positive CD4-positive cells was measured using flow cytometry.
The percentage of MAdCAM-1-positive cells among CD3-positive CD4-positive cells was calculated by subtracting each measured value from the measured value when MAdCAM-1/Fc was not added as a control. […]
The MAdCAM-1 binding inhibition rate (PD) of lymphocytes in plasma was evaluated using collected blood, and the correlation with the plasma concentration (PK) of Compound (2) was plotted (Fig. 5).

[2] = for 12-Hour Post-Dose Trough Values of Compound (2) after Repeated Administration / Average Plasma Concentrations of Compound (2) on Day 10 of Repeated Administration: Compound (1) 200 mg twice daily C-SEDDS
Protocol: A phase 1 clinical trial was conducted to evaluate the safety, tolerability, and pharmacokinetics of Compound (1) when orally administered to healthy adult males.
This clinical trial was a single-center, randomized, double-blind, placebo-controlled, single and multiple ascending dose study with the primary objective of evaluating the safety and tolerability of Compound (1) when orally administered to healthy adult males.
The subjects in each cohort consisted of 8 people, of which 6 were assigned to Compound (1) and 2 were assigned to placebo, and they were administered the drug.
Day 8, when repeated administration was started, corresponds to administration day 1 (Day 1), and day 17 corresponds to administration day 10 (Day 10).
The plasma concentration of Compound (2) was measured using a validated measurement method. Specifically, plasma was separated from collected blood and processed, and then the plasma concentration was measured by an LC/MS/MS apparatus.
For twice-daily administration of C-SEDDS, blood was further collected at 13, 14, 14.5, and 16 hours later to quantify Compound (2).

[3] = PK Simulation Analysis 1 by superposition method (Phoenix WinNonlin NPS); design: species or system human
Source text: The plasma concentration profile of Compound (2) on day 10 of repeated administration was predicted using the superposition method implemented in the Nonparametric Superposition (NPS) tool of the analysis software Phoenix WinNonlin, applying the single-dose results (Certara L.P.) (Fig. 4). Table 5: Predicted Plasma Concentration (ng/mL) of Compound (2) on Day 10 of Repeated Administration

[4] = PK Simulation Analysis 2 by superposition method (200 mg twice daily); design: species or system human; conditions: day 10 of repeated administration
Protocol: The plasma concentration of Compound (2) on day 10 of repeated administration at 200 mg twice daily (every 12 hours) was predicted using the superposition method implemented in the Nonparametric Superposition (NPS) tool of the analysis software Phoenix WinNonlin, applying the results of once-daily administration at 200 mg (Certara L.P.) (Fig. 6). Table 6: Predicted Plasma Concentration (ng/mL) of Compound (2) on Day 10 of Repeated Administration Twice Daily

[5] = plasma concentration, MAdCAM-1-positive cells among CD3-positive CD4-positive cells, ex vivo blood of healthy adult males
[6] = Measured Value, Repeated, Twice daily, 400(200×2)/C-SEDDS, day 10

correlation of MAdCAM-1 binding inhibition rate (PD) with plasma concentration (PK) ([1]; collected blood, Fig. 5): correlated | increase of plasma concentration (trough value) 12 hours after the second dose on the 10th day of repeated administration ([2]; C-SEDDS 200 mg twice daily, versus single-dose administration): about eightfold | 12-Hour Post-Dose Trough Values of Compound (2) after Repeated Administration ([2]; Day 0.5): 2.025 ng/mL | 12-Hour Post-Dose Trough Values of Compound (2) after Repeated Administration ([2]; Day 1): 3.653 ng/mL | 12-Hour Post-Dose Trough Values of Compound (2) after Repeated Administration ([2]; Day 1.5): 4.250 ng/mL | 12-Hour Post-Dose Trough Values of Compound (2) after Repeated Administration ([2]; Day 2): 6.021 ng/mL | 12-Hour Post-Dose Trough Values of Compound (2) after Repeated Administration ([2]; Day 2.5): 7.700 ng/mL | 12-Hour Post-Dose Trough Values of Compound (2) after Repeated Administration ([2]; Day 3): 7.026 ng/mL | 12-Hour Post-Dose Trough Values of Compound (2) after Repeated Administration ([2]; Day 3.5): 7.381 ng/mL | 12-Hour Post-Dose Trough Values of Compound (2) after Repeated Administration ([2]; Day 4): 9.303 ng/mL | 12-Hour Post-Dose Trough Values of Compound (2) after Repeated Administration ([2]; Day 4.5): 9.167 ng/mL | 12-Hour Post-Dose Trough Values of Compound (2) after Repeated Administration ([2]; Day 5): 9.985 ng/mL | 12-Hour Post-Dose Trough Values of Compound (2) after Repeated Administration ([2]; Day 5.5): 12.59 ng/mL | 12-Hour Post-Dose Trough Values of Compound (2) after Repeated Administration ([2]; Day 6): 11.20 ng/mL | 12-Hour Post-Dose Trough Values of Compound (2) after Repeated Administration ([2]; Day 6.5): 10.81 ng/mL | 12-Hour Post-Dose Trough Values of Compound (2) after Repeated Administration ([2]; Day 7): 11.82 ng/mL | 12-Hour Post-Dose Trough Values of Compound (2) after Repeated Administration ([2]; Day 7.5): 10.83 ng/mL | 12-Hour Post-Dose Trough Values of Compound (2) after Repeated Administration ([2]; Day 8): 14.16 ng/mL | 12-Hour Post-Dose Trough Values of Compound (2) after Repeated Administration ([2]; Day 8.5): 12.12 ng/mL | 12-Hour Post-Dose Trough Values of Compound (2) after Repeated Administration ([2]; Day 9): 15.06 ng/mL | 12-Hour Post-Dose Trough Values of Compound (2) after Repeated Administration ([2]; Day 9.5): 12.20 ng/mL | 12-Hour Post-Dose Trough Values of Compound (2) after Repeated Administration ([2]; Day 10): 13.69 ng/mL | Average Plasma Concentrations of Compound (2) on Day 10 of Repeated Administration ([2]; Day 10, Time 0.5 h): 11.82 ng/mL | Average Plasma Concentrations of Compound (2) on Day 10 of Repeated Administration ([2]; Day 10, Time 1 h): 10.63 ng/mL | Average Plasma Concentrations of Compound (2) on Day 10 of Repeated Administration ([2]; Day 10, Time 1.5 h): 10.52 ng/mL | Average Plasma Concentrations of Compound (2) on Day 10 of Repeated Administration ([2]; Day 10, Time 2 h): 14.42 ng/mL | Average Plasma Concentrations of Compound (2) on Day 10 of Repeated Administration ([2]; Day 10, Time 2.5 h): 17.31 ng/mL | Average Plasma Concentrations of Compound (2) on Day 10 of Repeated Administration ([2]; Day 10, Time 3 h): 18.02 ng/mL | Average Plasma Concentrations of Compound (2) on Day 10 of Repeated Administration ([2]; Day 10, Time 4 h): 20.07 ng/mL | Average Plasma Concentrations of Compound (2) on Day 10 of Repeated Administration ([2]; Day 10, Time 5 h): 20.59 ng/mL | Average Plasma Concentrations of Compound (2) on Day 10 of Repeated Administration ([2]; Day 10, Time 6 h): 14.19 ng/mL | Average Plasma Concentrations of Compound (2) on Day 10 of Repeated Administration ([2]; Day 10, Time 7 h): 12.13 ng/mL | Average Plasma Concentrations of Compound (2) on Day 10 of Repeated Administration ([2]; Day 10, Time 8 h): 10.93 ng/mL | Average Plasma Concentrations of Compound (2) on Day 10 of Repeated Administration ([2]; Day 10, Time 12 h): 12.20 ng/mL | Average Plasma Concentrations of Compound (2) on Day 10 of Repeated Administration ([2]; Day 10, Time 13 h): 15.64 ng/mL | Average Plasma Concentrations of Compound (2) on Day 10 of Repeated Administration ([2]; Day 10, Time 14 h): 25.37 ng/mL | Average Plasma Concentrations of Compound (2) on Day 10 of Repeated Administration ([2]; Day 10, Time 14.5 h): 25.16 ng/mL | Average Plasma Concentrations of Compound (2) on Day 10 of Repeated Administration ([2]; Day 10, Time 15 h): 22.99 ng/mL | Average Plasma Concentrations of Compound (2) on Day 10 of Repeated Administration ([2]; Day 10, Time 16 h): 20.48 ng/mL | Average Plasma Concentrations of Compound (2) on Day 10 of Repeated Administration ([2]; Day 10, Time 21 h): 13.24 ng/mL | Average Plasma Concentrations of Compound (2) on Day 10 of Repeated Administration ([2]; Day 10, Time 24 h): 13.69 ng/mL | 12-Hour Post-Dose Trough Values of Compound (2) after Repeated Administration ([2]; Initial Value): 0.000 ng/mL | Judgment Trough Value [2, 6]: A (IC90 (6.9 ng/mL) or higher) | Plasma Concentration Trough Value [2, 6]: 13.69 ng/mL and 13.7 ng/mL | estimated trough value on the 10th day of repeated administration ([3]; 50 mg, 2.5 times the predicted 20 mg value): 2.03 ng/mL | predicted trough value for 200 mg twice daily compared to measured trough value after 400 mg once daily [4]: about twice
SMILES: Cc1cc(=O)n(-c2ccc(C[C@H](NC(=O)c3cc(F)c(NS(=O)(=O)c4ccc(NC(=O)C(C)(C)C)cc4)cc3F)C(=O)O)cn2)c(=O)n1C [Compound (2)]
IC50 (concentration that causes 50% binding inhibition) [1, 5]: 1.9 ng/mL (≈ 2.72 nM) | IC90 (concentration that causes 90% binding inhibition) [1, 5]: 6.9 ng/mL (≈ 9.88 nM) | Judgment Trough Value ([3]; estimated, repeated administration at 50 mg, 10th day): B (IC50 (1.9 ng/mL) or higher and less than IC90 (6.9 ng/mL))
